Test results: patent US10590064B2, “Crystals of alanine N-acetic acid precursors, process to prepare them and their use” (NOURYON CHEMICALS INTERNATIONAL B.V., priority 2014, dated 2020)

Assays:
Type in all cases: physicochemical
pH of 1 wt % in water = experiment: pH of 1 wt % in water
Protocol: Additionally the pH was measured as 1 wt % D,L-alanine diacetonitrile in water and this pH was compared to the pH of 1 wt % […].

[1] = Solubility of D,L-alanine diacetonitrile crystals in demi-water at various temperatures; conditions: overnight
Protocol: (§1) The solubility of D,L-alanine diacetonitrile was determined at various temperatures to get a clear understanding of the solubility and stability of D,L-alanine diacetonitrile. The D,L-alanine diacetonitrile crystals obtained in Example 1 were added to demi-water and the samples in well-closed bottles were placed in ovens/refrigerators at various temperatures overnight.

[2] = Stability (hydrolysis) of D,L-alanine diacetonitrile in water, aqueous layers analyzed by NMR; conditions: demi-water, closed bottles, overnight at various temperatures
Protocol: as §1

Row | Compound | pH (1% in water) (pH of 1 wt % in water) | Solubility, wt % D,L-alanine diacetonitrile ([1]; 0° C.) | Solubility, wt % D,L-alanine diacetonitrile ([1]; 5° C.) | Solubility, wt % D,L-alanine diacetonitrile ([1]; 20° C.) | Solubility, wt % D,L-alanine diacetonitrile ([1]; 30° C.) | Solubility, wt % D,L-alanine diacetonitrile ([1]; 40° C.) | Solubility, wt % D,L-alanine diacetonitrile ([1]; 50° C.) | Hydrolysis of D,L-alanine diacetonitrile in aqueous layer (NMR) [2]
1 | CC(C(=O)[O-])N(CC#N)CC#N.[Na+] (racemic) [D,L-alanine diacetonitrile-Na, sodium salt of D,L-alanine diacetonitrile] | pH = 3.3. | – | – | – | – | – | – | –
2 | D,L-alanine diacetonitrile | pH = 2.2 | 6 wt % | 7.9 wt % | 40.7 wt % | 75 wt % | 82.5 wt % | 95 wt % | no or very little hydrolysis took place
